Values of other authors in US20220265684A1, “COMPOSITIONS AND METHODS FOR TREATING ULCERATIVE COLITIS” (9 METERS BIOPHARMA, INC., priority 2021, published 2022).

Settings: after administration of 100 mg (1 tablet); Actarit PI

AUC0-∞: 4560 ng·h/mL | Cmax: 2240 ng/mL
SMILES: Nc1ccc(CC(=O)O)cc1 [4-APAA, 4-aminophenylacetic acid]
